In PubChem BioAssay (NCI):
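These data come from cells grown in 96-well plates and exposed to compound for 48 hours at five concentrations. TGI marks complete inhibition of growth.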

How the values were obtained:
Test in all cases: NCI tumour cell line growth inhibition, 48 h
NCI-H23 lung = test system: NCI-H23 lung
HCT-116 colon = test system: HCT-116 colon
DU-145 prostate = test system: DU-145 prostate
OVCAR-8 ovarian = test system: OVCAR-8 ovarian
COLO 205 colon = test system: COLO 205 colon
SK-MEL-2 melanoma = test system: SK-MEL-2 melanoma
SW-620 colon = test system: SW-620 colon
SNB-19 CNS = test system: SNB-19 CNS
SK-MEL-5 melanoma = test system: SK-MEL-5 melanoma
ACHN renal = test system: ACHN renal
SF-295 CNS = test system: SF-295 CNS
NCI-H226 lung = test system: NCI-H226 lung
MDA-N = test system: MDA-N
LOX IMVI melanoma = test system: LOX IMVI melanoma
OVCAR-4 ovarian = test system: OVCAR-4 ovarian
PC-3 prostate = test system: PC-3 prostate
HOP-92 NSCLC = test system: HOP-92 NSCLC
A498 renal = test system: A498 renal
CAKI-1 renal = test system: CAKI-1 renal
SF-539 CNS = test system: SF-539 CNS

| Structure (SMILES) | TGI (NCI-H23 lung) | TGI (HCT-116 colon) | TGI (DU-145 prostate) | TGI (OVCAR-8 ovarian) | TGI (COLO 205 colon) | TGI (SK-MEL-2 melanoma) | TGI (SW-620 colon) | TGI (SNB-19 CNS) | TGI (SK-MEL-5 melanoma) | TGI (ACHN renal) | TGI (SF-295 CNS) | TGI (NCI-H226 lung) | TGI (MDA-N) | TGI (LOX IMVI melanoma) | TGI (OVCAR-4 ovarian) | TGI (PC-3 prostate) | TGI (HOP-92 NSCLC) | TGI (A498 renal) | TGI (CAKI-1 renal) | TGI (SF-539 CNS) |
| --- | --- | --- | --- | --- | --- | --- | --- | --- | --- | --- | --- | --- | --- | --- | --- | --- | --- | --- | --- | --- |
| CCOC(=O)C(Cl)(NC(=O)c1ccc(F)cc1)C(F)(F)F (stereo not drawn) | > 100 µM | > 100 µM | > 100 µM | > 100 µM | > 100 µM | > 100 µM | > 100 µM | > 100 µM | > 100 µM | > 100 µM | > 100 µM | > 100 µM | > 100 µM | > 100 µM | > 100 µM | > 100 µM | > 100 µM | > 100 µM | > 100 µM | > 100 µM |
| CCCN(CCCCC(NC(C)=O)C(=O)NCc1ccccc1)C(=O)N(CCCl)N=O (stereo not drawn) | 98.5 µM | > 100 µM | > 100 µM | > 100 µM | > 100 µM | > 100 µM | > 100 µM | > 100 µM | > 100 µM | > 100 µM | > 100 µM | > 100 µM | > 100 µM | > 100 µM | > 100 µM | > 100 µM | > 100 µM | > 100 µM | > 100 µM | 41.1 µM |
| C1=C2C3=[N+](CCCC3)CC2Cc2ccsc21 (stereo not drawn) | > 100 µM | > 100 µM | > 100 µM | > 100 µM | > 100 µM | > 100 µM | > 100 µM | > 100 µM | > 100 µM | > 100 µM | > 100 µM | > 100 µM | > 100 µM | > 100 µM | > 100 µM | > 100 µM | > 100 µM | > 100 µM | > 100 µM | – |
| O=c1[nH]nc(-c2cccc(Br)c2)[nH]1 | > 100 µM | > 100 µM | > 100 µM | > 100 µM | > 100 µM | > 100 µM | > 100 µM | > 100 µM | > 100 µM | > 100 µM | > 100 µM | > 100 µM | > 100 µM | > 100 µM | > 100 µM | > 100 µM | > 100 µM | > 100 µM | > 100 µM | > 100 µM |
| CO/N=C(\C(=O)Nc1cncs1)c1csc(NC(c2ccccc2)(c2ccccc2)c2ccccc2)n1 | > 10 µM | > 10 µM | > 10 µM | > 10 µM | > 10 µM | > 10 µM | > 10 µM | > 10 µM | > 10 µM | > 10 µM | > 10 µM | > 10 µM | > 10 µM | > 10 µM | > 10 µM | > 10 µM | > 10 µM | > 10 µM | > 10 µM | > 10 µM |
| Brc1ccc2c(-c3nc(-c4c[nH]c5ccc(Br)cc45)cs3)c[nH]c2c1 | 13.3 µM | 14.3 µM | 19.1 µM | 25.3 µM | 7.06 µM | 20.7 µM | 24.4 µM | 13 µM | 12.3 µM | > 30 µM | 17.8 µM | 5.37 µM | 16.4 µM | 5.22 µM | 24.3 µM | 17.9 µM | 11 µM | 11.8 µM | 14.5 µM | 18.1 µM |
| c1ccc2c(c1)nc1n2CNCC1 | > 100 µM | > 100 µM | > 100 µM | > 100 µM | > 100 µM | > 100 µM | > 100 µM | > 100 µM | > 100 µM | > 100 µM | > 100 µM | > 100 µM | > 100 µM | 73.3 µM | > 100 µM | > 100 µM | > 100 µM | > 100 µM | > 100 µM | > 100 µM |
| N#Cc1nc(COCCOCc2ccccc2)oc1N | > 100 µM | > 100 µM | > 100 µM | > 100 µM | > 100 µM | > 100 µM | > 100 µM | > 100 µM | > 100 µM | > 100 µM | > 100 µM | > 100 µM | > 100 µM | > 100 µM | > 100 µM | > 100 µM | > 100 µM | > 100 µM | > 100 µM | > 100 µM |
| COc1cc(C2c3cc4c(cc3[C@H](OCCN(C)C)[C@@H]3COC(=O)C23)OCO4)cc(OC)c1O (stereo partly drawn) | 1.3 µM | 7.18 µM | 0.549 µM | 2.92 µM | 9.05 µM | 2.44 µM | 3.4 µM | 5.98 µM | 1.74 µM | 0.253 µM | 0.583 µM | 0.301 µM | 30 µM | 0.803 µM | 4.97 µM | 81.1 µM | 1.5 µM | 1.22 µM | 1.07 µM | 0.449 µM |
| C=C1CC[C@@]2(OC1)OC1C[C@H]3[C@@H]4CC=C5C[C@@H](O)CC(OC6OCC(OC(=O)[C@@H](O)[C@@H](C)CC)C(OC(C)=O)C6OC6OC(C)C(O)C(O)C6O)[C@]5(C)[C@H]4CC[C@]3(C)C1[C@@H]2C (stereo partly drawn) | 6.57 µM | 3.06 µM | 4.35 µM | 4.31 µM | 4.5 µM | 3.11 µM | 4.51 µM | 3.87 µM | 3.59 µM | 5.93 µM | 3.27 µM | 6.01 µM | 3.51 µM | 3.67 µM | > 10 µM | 3.16 µM | > 10 µM | 3.44 µM | 7.85 µM | 5.21 µM |
| CCC1c2[nH]c3ccccc3c2C[C@H]2C(=O)NC(CCC(=O)OC(C)(C)C)C(=O)N12 (stereo partly drawn) | > 100 µM | > 100 µM | > 100 µM | > 100 µM | 72.3 µM | > 100 µM | > 100 µM | > 100 µM | > 100 µM | > 100 µM | > 100 µM | > 100 µM | > 100 µM | > 100 µM | > 100 µM | > 100 µM | 94.9 µM | > 100 µM | > 100 µM | – |
| CC(=O)NNc1nc(C)c(C(/C=C/c2cccc([N+](=O)[O-])c2)=N/NC(=S)NN)s1 | > 100 µM | > 100 µM | > 100 µM | > 100 µM | > 100 µM | > 100 µM | > 100 µM | > 100 µM | > 100 µM | > 100 µM | > 100 µM | > 100 µM | > 100 µM | > 100 µM | > 100 µM | > 100 µM | > 100 µM | > 100 µM | > 100 µM | > 100 µM |
| O=P(O)(O)CN1CCN(CP(=O)(O)O)CCN(CP(=O)(O)O)CCN(CP(=O)(O)O)CC1 | > 100 µM | > 100 µM | > 100 µM | > 100 µM | > 100 µM | > 100 µM | > 100 µM | > 100 µM | – | > 100 µM | > 100 µM | > 100 µM | > 100 µM | > 100 µM | > 100 µM | > 100 µM | > 100 µM | > 100 µM | > 100 µM | > 100 µM |
| O=C(CNc1ccc(Cl)cc1)Nn1c(-c2ccccc2)nc2ccccc2c1=O | 18 µM | 4.65 µM | 28.5 µM | 5.53 µM | 18.6 µM | 30.4 µM | 11.9 µM | 24.5 µM | 7.09 µM | 22.3 µM | 29.8 µM | 25.2 µM | 22.5 µM | 4.12 µM | 27 µM | 25.4 µM | 13.4 µM | 29.7 µM | 23.6 µM | 14.9 µM |
| C=C(C)[C@@H](C(=O)OC)N1C(=O)c2ccccc2C1=O | > 100 µM | > 100 µM | > 100 µM | > 100 µM | > 100 µM | > 100 µM | > 100 µM | > 100 µM | > 100 µM | > 100 µM | > 100 µM | > 100 µM | > 100 µM | > 100 µM | > 100 µM | > 100 µM | > 100 µM | > 100 µM | > 100 µM | > 100 µM |
| Cn1c(=O)c2c(nc(NCCCCl)n2CC(=O)NCCCCl)n(C)c1=O | > 100 µM | > 100 µM | > 100 µM | > 100 µM | > 100 µM | > 100 µM | > 100 µM | > 100 µM | > 100 µM | > 100 µM | > 100 µM | > 100 µM | > 100 µM | > 100 µM | > 100 µM | > 100 µM | > 100 µM | > 100 µM | > 100 µM | – |
| CC(=O)NCc1nc(C#N)c(N)o1 | > 100 µM | > 100 µM | > 100 µM | > 100 µM | > 100 µM | > 100 µM | > 100 µM | > 100 µM | – | > 100 µM | > 100 µM | > 100 µM | > 100 µM | > 100 µM | > 100 µM | > 100 µM | > 100 µM | > 100 µM | > 100 µM | > 100 µM |
| O=C(Nc1ccc2nc(-c3ccccc3)cn2c1)Oc1ccccc1 | > 100 µM | > 100 µM | > 100 µM | > 100 µM | > 100 µM | > 100 µM | > 100 µM | > 100 µM | > 100 µM | > 100 µM | > 100 µM | > 100 µM | 41.9 µM | > 100 µM | > 100 µM | > 100 µM | > 100 µM | > 100 µM | > 100 µM | – |
| C/C(=N\NC(=S)N1CC2CCC(CC2)C1)c1ccncn1 | 2.4 µM | 1.5 µM | 6.26 µM | – | < 0.0333 µM | 5.39 µM | 18.4 µM | 15 µM | 0.833 µM | 3.28 µM | 4.94 µM | 2.33 µM | 15.4 µM | 3.1 µM | 9.92 µM | 15 µM | 3.9 µM | 2.84 µM | 2.44 µM | 2.02 µM |
